Measured values from patent US20230192705A1, “SHP2 INHIBITORS, COMPOSITIONS AND USES THEREOF” (Betta Pharmaceuticals Co., Ltd, priority 2020, published 2023).

Target: T1, SHP2 (Homo sapiens, UniProt Q06124)
T1 sequence (Q06124 1-593): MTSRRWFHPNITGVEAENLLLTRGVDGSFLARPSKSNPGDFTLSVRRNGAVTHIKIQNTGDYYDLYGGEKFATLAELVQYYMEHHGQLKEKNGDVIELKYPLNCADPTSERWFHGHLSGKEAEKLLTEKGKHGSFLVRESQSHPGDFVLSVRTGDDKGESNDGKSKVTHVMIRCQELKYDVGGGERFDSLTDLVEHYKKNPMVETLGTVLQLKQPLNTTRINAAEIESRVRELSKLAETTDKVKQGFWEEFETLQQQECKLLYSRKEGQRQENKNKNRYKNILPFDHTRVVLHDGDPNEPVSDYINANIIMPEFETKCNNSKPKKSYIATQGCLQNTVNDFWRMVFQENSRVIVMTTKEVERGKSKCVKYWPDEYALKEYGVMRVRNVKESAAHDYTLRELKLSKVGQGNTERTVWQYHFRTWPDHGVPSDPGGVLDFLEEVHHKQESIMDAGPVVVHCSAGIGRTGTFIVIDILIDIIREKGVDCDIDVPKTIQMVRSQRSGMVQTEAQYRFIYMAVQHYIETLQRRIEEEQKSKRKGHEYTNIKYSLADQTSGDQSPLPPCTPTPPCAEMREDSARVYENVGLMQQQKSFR
Assay: SHP2 allosteric inhibitor enzyme activity assay (DiFMUP fluorescence)
Assay type: biochemical
Details: class symbols
Procedure, shortened: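 SHP2 activated by 0.5 μM IRS1_pY1172(dPEG8)pY1222 peptide, 0.2 ng enzyme per well, 1 h at room temperature with compound (1 μM top, 3-fold series), then DiFMUP substrate 1 h. Buffer: 60 mM HEPES, 75 mM NaCl, 75 mM KCl, 0.05% BRIJ-35, 1 mM EDTA, 5 mM DTT. Fluorescence ex 340/em 450 nm; IC50 by variable-slope fit.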

Row | IC50 [nM] | Structure (SMILES)
1 | ≤ 20 | N[C@@H]1c2ccccc2CC12CCN(c1nc3[nH]nc(C4=CC5(COC5)c5ccccc54)c3c(=O)[nH]1)CC2 [Example 170, (S)-6-(1-amino-1,3-dihydrospiro[indene-2,4′-piperidin]-1′-yl)-3-(spiro[indene-1,3′-oxetan]-3-yl)-1,5-dihydro-4H-pyrazolo[3,4-d]pyrimidin-4-one]
2 | 20 to 60 | C[C@@H]1OCC2(CCN(c3nc4[nH]nc(C5(c6cccc(Cl)c6Cl)CC5)c4c(=O)[nH]3)CC2)[C@@H]1N [Example 309, 6-((3S,4S)-4-amino-3-methyl-2-oxa-8-azaspiro[4.5]decan-8-yl)-3-(1-(2,3-dichlorophenyl)cyclopropyl)-1,5-dihydro-4H-pyrazolo[3,4-d]pyrimidin-4-one]
3 | ≤ 20 | N[C@@H]1c2ccccc2CC12CCN(c1nc3[nH]nc(C4(c5ccnc(-c6ccccc6)c5)CC4)c3c(=O)[nH]1)CC2 [Example 86, (S)-6-(1-amino-1,3-dihydrospiro[indene-2,4′-piperidin]-1′-yl)-3-(1-(2-phenylpyridin-4-yl)cyclopropyl)-1,5-dihydro-4H-pyrazolo[3,4-d]pyrimidin-4-one]
4 | 20 to 60 | CC1(C)C=C(c2n[nH]c3nc(N4CCC5(CC4)Cc4ccccc4[C@H]5N)[nH]c(=O)c23)c2cn(C3CC3)nc2C1 [Example 155, (S)-6-(1-amino-1,3-dihydrospiro[indene-2,4′-piperidin]-1′-y1)-3-(2-cyclopropyl-6,6-dimethyl-6,7-dihydro-2H-indazol-4-yl)-1,5-dihydro-4H-pyrazolo[3,4-d]pyrimidin-4-one]
5 | 20 to 60 | CC1(C)C=C(c2n[nH]c3nc(N4CCC5(CC4)Cc4ccccc4[C@H]5N)[nH]c(=O)c23)c2cnn(C3CC3)c2C1 [Example 152, (S)-6-(1-amino-1,3-dihydrospiro[indene-2,4′-piperidin]-1′-yl)-3-(1-cyclopropyl-6,6-dimethyl-6,7-dihydro-1H-indazol-4-yl)-1,5-dihydro-4H-pyrazolo[3,4-d]pyrimidin-4-one]
6 | ≤ 20 | N[C@@H]1c2ccccc2CC12CCN(c1nc3[nH]nc(C4(c5ccccc5)CCC4)c3c3nncn13)CC2 [Example 92, (S)-1′-(9-(1-phenylcyclobutyl)-7H-pyrazolo[4,3-e][1,2,4]triazolo[4,3-c]pyrimidin-5-yl)-1,3-dihydrospiro[indene-2,4′-piperidin]-1-amine]
7 | 20 to 60 | Cc1csc(C2(c3n[nH]c4nc(N5CCC6(CC5)CO[C@@H](C)[C@H]6N)[nH]c(=O)c34)CC2)n1 [Example 318, 6-((3S,4S)-4-amino-3-methyl-2-oxa-8-azaspiro[4.5]decan-8-yl)-3-(1-(4-methylthiazol-2-yl)cyclopropyl)-1,5-dihydro-4H-pyrazolo[3,4-d]pyrimidin-4-one]
8 | ≤ 20 | Cc1cccc(C2(c3n[nH]c4nc(N5CCC6(CC5)Cc5ccccc5[C@H]6N)[nH]c(=O)c34)CC2)n1 [Example 248, (S)-6-(1-amino-1,3-dihydrospiro[indene-2,4′-piperidin]-1′-yl)-3-(1-(6-methylpyridin-2-yl)cyclopropyl)-1,5-dihydro-4H-pyrazolo[3,4-d]pyrimidin-4-one]
9 | 20 to 60 | COc1ccccc1C1(c2n[nH]c3nc(N4CCC5(CC4)CO[C@@H](C)[C@H]5N)[nH]c(=O)c23)CC1 [Example 306, 6-((3S,4S)-4-amino-3-methyl-2-oxa-8-azaspiro[4.5]decan-8-yl)-3-(1-(2-methoxyphenyl)cyclopropyl)-1,5-dihydro-4H-pyrazolo[3,4-d]pyrimidin-4-one]
10 | 20 to 60 | Cc1cccc(C2(c3n[nH]c4nc(N5CCC6(CC5)CO[C@@H](C)[C@H]6N)[nH]c(=O)c34)CC2)c1 [Example 301, 6-((3S,4S)-4-amino-3-methyl-2-oxa-8-azaspiro[4.5]decan-8-yl)-3-(1-(m-tolyl)cyclopropyl)-1,5-dihydro-4H-pyrazolo[3,4-d]pyrimidin-4-one]
11 | ≤ 20 | Cn1ncc(-c2cccc(C3(c4n[nH]c5nc(N6CCC7(CC6)Cc6ccccc6[C@H]7N)[nH]c(=O)c45)CC3)c2)n1 [Example 37, (S)-6-(1-amino-1,3-dihydrospiro[indene-2,4′-piperidin]-1′-yl)-3-(1-(3-(2-methyl-2H-1,2,3-triazol-4-yl)phenyl)cyclopropyl)-1,5-dihydro-4H-pyrazolo[3,4-d]pyrimidin-4-one]
12 | ≤ 20 | COCCOc1cccc(C2(c3n[nH]c4nc(N5CCC6(CC5)Cc5ccccc5[C@H]6N)[nH]c(=O)c34)CC2)c1 [Example 44, (S)-6-(1-amino-1,3-dihydrospiro[indene-2,4′-piperidin]-1′-yl)-3-(1-(3-(2-methoxyethoxy)phenyl)cycloprop-yl)-1,5-dihydro-4H-pyrazolo[3,4-d]pyrimidin-4-one]
13 | ≤ 20 | N[C@@H]1c2ccccc2CC12CCN(c1nc3[nH]nc(C4(c5ccnc6ccccc56)CC4)c3c(=O)[nH]1)CC2 [Example 78, (S)-6-(1-amino-1,3-dihydrospiro[indene-2,4′-piperidin]-1′-yl)-3-(1-(quinolin-4-yl)cyclopropyl)-1,5-dihydro-4H-pyrazolo[3,4-d]pyrimidin-4-one]
14 | 20 to 60 | N[C@@H]1c2ccccc2CC12CCN(c1nc3[nH]nc(C4(c5ccccc5)CCOC4)c3c(=O)[nH]1)CC2 (stereo partly drawn) [Example 98, 6-((S)-1-amino-1,3-dihydrospiro[indene-2,4′-piperidin]-1′-yl)-3-(3-phenyltetrahydrofuran-3-yl)-1,5-dihydro-4H-pyrazolo[3,4-d]pyrimidin-4-one]
15 | > 60 | C[C@@H]1OCC2(CCN(c3nc4[nH]nc(C5(c6ccc(Cl)cc6Cl)CC5)c4c(=O)[nH]3)CC2)[C@@H]1N [Example 313, 6-((3S,4S)-4-amino-3-methyl-2-oxa-8-azaspiro[4.5]decan-8-yl)-3-(1-(2,4-dichlorophenyl)cyclopropyl)-1,5-dihydro-4H-pyrazolo[3,4-d]pyrimidin-4-one]
16 | 20 to 60 | N[C@@H]1CCCC12CCN(c1nc3[nH]nc(C4(c5ccccc5)CC4)c3c(=O)[nH]1)CC2 [Example 321, (R)-6-(1-amino-8-azaspiro[4.5]decan-8-yl)-3-(1-phenylcyclopropyl)-1,5-dihydro-4H-pyrazolo[3,4-d]pyrimidin-4-one]
17 | ≤ 20 | N#Cc1cccc(C2(c3n[nH]c4nc(N5CCC6(CC5)Cc5ccccc5[C@H]6N)[nH]c(=O)c34)CC2)c1 [Example 35, (S)-3-(1-(6-(1-amino-1,3-dihydrospiro[indene-2,4′-piperidin]-1′-yl)-4-oxo-4,5-dihydro-1H-pyrazolo[3,4-d]pyrimidin-3-yl)cyclopropyl)benzonitrile]
18 | 20 to 60 | C[C@@H]1CCC2(CCN(c3nc4[nH]nc(C5(c6ccccc6)CC5)c4c(=O)[nH]3)CC2)[C@@H]1N [Example 320, 6-((1R,2R)-1-amino-2-methyl-8-azaspiro[4.5]decan-8-yl)-3-(1-phenylcyclopropyl)-1,5-dihydro-4H-pyrazolo[3,4-d]pyrimidin-4-one]
19 | > 60 | C[C@@H]1OCC2(CCN(c3nc4[nH]nc(C5(c6cc7ccccc7[nH]6)CC5)c4c(=O)[nH]3)CC2)[C@@H]1N [Example 285, 3-(1-(1H-indol-2-yl)cyclopropyl)-6-((3S,4S)-4-amino-3-methyl-2-oxa-8-azaspiro[4.5]decan-8-yl)-1,5-dihydro-4H-pyrazolo[3,4-d]pyrimidin-4-one]
